{"source": "patent US4198349A", "about": "“Benzylideneaniline derivatives” (William H. Rorer, Inc., priority 1978, dated 1980)", "data": [{"system": "croton oil-induced inflammation in the mouse's ear", "test": "Topical anti-inflammatory activity after immediate application in croton oil-induced inflammation in the mouse's ear", "assay_type": "in vivo, mouse (female CF1)", "conditions": "4 h, Topical Dose 4 mg/ear, immediate application with 2% croton oil, ears taken four hours after application, read-out: % Inhibition of Ear Edema", "description": "Testing of the anti-inflammatory effects of the compounds of Formula I were performed utilizing a modification of the experimental techniques described by Tonelli, G., Thibault, L. and Ringler, L., \"A Bioassay for the Concomitant Assessment of the Anti-phlogistic and Thymolytic Activities of Topically Applied Corticoids\": Endocrinology 77, 625 (1965) and Roszkowski, A. P., Rooks, W. H. II, Tomolonis, A. J., and Miller, L. M., \"Anti-inflammatory and Analgetic Properties of the d-2-(6-Methoxy-2'-Naphthyl)Propionic Acid (Naproxen)\". J. Pharm. Exp. Ther., 179, 114 (1971).\nThe topical anti-inflammatory activity of the test compounds is measured by immediate application at the time of induction of croton oil-induced inflammation in the mouse's ear.\n0.1 ml. of a solution containing 2% croton oil (Amend Drug and Chemical Co., Irvington, N.J.), 73% diethyl ether, U.S.P. (Corco Chemical Corp., Fairless Hills, Pa.), 20% pyridine (J. T. Baker Chemical Co., Phillipsburg, Pa.) and 5% distilled water was applied to the left ear of female CF1 mice, in groups of six, during light ether anesthesia.\nFour hours after application of either the irritant solution or the irritant solution containing the test compound, the mice were sacrificed by cervical dislocation, both ears were amputated and circular sections, one from each ear, were removed with a No. 4 cork borer (7 mm, i.d.). Each ear section was then weighed. The increase in weight due to edema formation caused by the croton oil in the treated ear and the reduction of that edema caused by drug treatment was determined by subtracting the weight of the untreated right ear section from that of the treated left ear section.\nThe anti-inflammatory effects of the test compounds expressed as percent inhibition are calculated by: [formula]\nTOPICAL ANTI-INFLAMMATORY ACTIVITY AFTER\nIMMEDIATE APPLICATION IN CROTON OIL-INDUCED\nINFLAMMATION IN THE MOUSE'S EAR", "units": {"inhibition in vivo at 4 mg/ear": "%"}, "values": [{"smiles": "Clc1ccc(N=Cc2c(Cl)cccc2Cl)cc1", "note": "[N-(2,6-dichlorobenzylidene)-p-chloroaniline]", "inhibition in vivo at 4 mg/ear": 9.1}, {"smiles": "Clc1cc(C=Nc2ccc(Br)cc2)ccc1C1CCCCC1", "note": "[N-(3-chloro-4-cyclohexylbenzylidene)-p-bromoaniline]", "inhibition in vivo at 4 mg/ear": 1.5}, {"smiles": "Fc1ccc(N=Cc2ccc(C3CCCCC3)c(Cl)c2)cc1", "note": "[N-(3-chloro-4-cyclohexylbenzylidene)-p-fluoroaniline]", "inhibition in vivo at 4 mg/ear": 6.8}, {"smiles": "Fc1ccc(N=Cc2cccc(Cl)c2)cc1", "note": "[N-(m-chlorobenzylidene)-p-fluoroaniline]", "inhibition in vivo at 4 mg/ear": 9.1}, {"smiles": "Cc1c(Cl)cccc1N=Cc1ccccc1Cl", "note": "[N-(o-chlorobenzylidene)-3-chloro-2-methylaniline]", "inhibition in vivo at 4 mg/ear": 44.3}, {"smiles": "Clc1cccc(N=Cc2ccccc2Cl)c1", "note": "[N-(o-chlorobenzylidene)-m-chloroaniline]", "inhibition in vivo at 4 mg/ear": 4}, {"smiles": "Fc1ccc(N=Cc2ccccc2Cl)cc1", "note": "[N-(o-chlorobenzylidene)-p-fluoroaniline]", "inhibition in vivo at 4 mg/ear": 24.3}, {"smiles": "Cc1cccc(N=Cc2ccccc2O)c1C", "note": "[N-(o-hydroxybenzylidene)-2,3-dimethylaniline]", "inhibition in vivo at 4 mg/ear": 27.8}, {"smiles": "Cc1c(Cl)cccc1N=Cc1ccccc1O", "note": "[N-(o-hydroxybenzylidene)-2-methyl-3-chloroaniline]", "inhibition in vivo at 4 mg/ear": 38.5}, {"smiles": "Oc1ccccc1C=Nc1ccccc1", "note": "[N-(o-hydroxybenzylidene)-aniline, N-(o-hydroxybenzylidene)aniline]", "inhibition in vivo at 4 mg/ear": 5.3}, {"smiles": "Oc1ccccc1C=Nc1cccc(C(F)(F)F)c1", "note": "[N-(o-hydroxybenzylidene)-m-(α,α,α-trifluorotoluidine)]", "inhibition in vivo at 4 mg/ear": 21.6}, {"smiles": "Oc1ccccc1C=Nc1ccc(F)cc1", "note": "[N-(o-hydroxybenzylidene)-p-fluoroaniline]", "inhibition in vivo at 4 mg/ear": 21.5}, {"smiles": "Fc1ccc(N=Cc2ccc(Br)cc2)c(C(F)(F)F)c1", "note": "[N-(p-bromobenzylidene)-4-fluoro-2-trifluoromethylaniline]", "inhibition in vivo at 4 mg/ear": 18.8}, {"smiles": "Cc1c(Cl)cccc1N=Cc1ccc(Cl)cc1", "note": "[N-(p-chlorobenzylidene)-2-methyl-3-chloroaniline]", "inhibition in vivo at 4 mg/ear": 46.8}, {"smiles": "Cc1cc(Cl)ccc1N=Cc1ccc(Cl)cc1", "note": "[N-(p-chlorobenzylidene)-2-methyl-4-chloroaniline]", "inhibition in vivo at 4 mg/ear": 23}, {"smiles": "Fc1ccc(N=Cc2ccc(Cl)cc2)c(C(F)(F)F)c1", "note": "[N-(p-chlorobenzylidene)-4-fluoro-2-trifluoromethylaniline]", "inhibition in vivo at 4 mg/ear": 36.5}, {"smiles": "Clc1ccc(C=Nc2cccc(Cl)c2)cc1", "note": "[N-(p-chlorobenzylidene)-m-chloroaniline]", "inhibition in vivo at 4 mg/ear": 23.6}, {"smiles": "Fc1cccc(N=Cc2ccc(Cl)cc2)c1", "note": "[N-(p-chlorobenzylidene)-m-fluoroaniline]", "inhibition in vivo at 4 mg/ear": 10.8}, {"smiles": "Fc1ccc(N=Cc2ccc(Cl)cc2)cc1", "note": "[N-(p-chlorobenzylidene)-p-fluoroaniline]", "inhibition in vivo at 4 mg/ear": 45.2}, {"smiles": "Cc1ccc(N=Cc2ccc(Cl)cc2)cc1", "note": "[N-(p-chlorobenzylidene)-p-methylaniline]", "inhibition in vivo at 4 mg/ear": 16.2}, {"smiles": "Fc1ccc(C=Nc2ccccc2C(F)(F)F)cc1", "note": "[N-(p-fluorobenzylidene)-o-trifluoromethylaniline]", "inhibition in vivo at 4 mg/ear": 21.3}, {"smiles": "Clc1cc(Br)ccc1N=Cc1ccc(-c2ccccc2)cc1", "note": "[N-(p-phenylbenzylidene)-2-chloro-4-bromoaniline]", "inhibition in vivo at 4 mg/ear": 33.9}, {"smiles": "C(=Nc1ccccc1)c1ccc(-c2ccccc2)cc1", "note": "[N-(p-phenylbenzylidene)-aniline, N-(p-phenylbenzylidene)aniline]", "inhibition in vivo at 4 mg/ear": 24.7}, {"smiles": "Brc1ccc(N=Cc2ccc(-c3ccccc3)cc2)cc1", "note": "[N-(p-phenylbenzylidene)-p-bromoaniline]", "inhibition in vivo at 4 mg/ear": 25.5}, {"smiles": "Cc1ccc(N=Cc2ccc(-c3ccccc3)cc2)cc1", "note": "[N-(p-phenylbenzylidene)-p-methylaniline]", "inhibition in vivo at 4 mg/ear": 27}, {"smiles": "Cc1cc(F)ccc1N=Cc1ccccc1", "note": "[N-benzylidene-2-methyl-4-fluoroaniline]", "inhibition in vivo at 4 mg/ear": 26.8}, {"smiles": "Cc1ccccc1N=Cc1ccccc1", "note": "[N-benzylidene-o-toluidine]", "inhibition in vivo at 4 mg/ear": 5.5}, {"smiles": "Clc1ccc(N=Cc2ccccc2)cc1", "note": "[N-benzylidene-p-chloroaniline]", "inhibition in vivo at 4 mg/ear": 29.3}, {"smiles": "CCc1ccc(N=Cc2ccccc2)cc1", "note": "[N-benzylidene-p-ethylaniline]", "inhibition in vivo at 4 mg/ear": 30.5}, {"smiles": "Cc1ccc(N=Cc2ccccc2)cc1", "note": "[N-benzylidene-p-toluidine]", "inhibition in vivo at 4 mg/ear": 45}, {"smiles": "C(=Nc1ccccc1)c1ccccc1", "note": "[N-benzylideneaniline, N-Benzylideneaniline]", "inhibition in vivo at 4 mg/ear": 4.9}]}]}
